US20170273922A1, “UREA AND BIS-UREA BASED COMPOUNDS AND ANALOGUES THEREOF USEFUL IN THE TREATMENT OF ANDROGEN RECEPTOR MEDIATED DISEASES OR DISORDERS” (THE ROYAL INSTITUTION FOR THE ADVACEMENT OF LEARNING/MCGILL …, priority 2014, published 2017)
“Also recorded” adds a separate entry of the source.

Legend:
LNCaP cells = assay: Western blot analysis of apoptosis in LNCaP cells; format: cell-based; settings: whole medium, 24 h
Procedure: Experiments were in duplicate and repeated three times. […] LNCaP cells in whole medium were exposed to DMSO vehicle control or compounds for 24 h.

22Rv1 cells = assay: Western blot analysis of apoptosis in 22Rv1 cells; format: cell-based; settings: phenol red-free medium+10% CS-FBS, 24 h
From the text: A) The 22Rv1 cells express substantial level of AR-Vs, which include AR-V7 and other AR variants lacking the LBD. The ARs were probed by N-terminal directed AR antibody (N20, Santa Cruz); B) The 22Rv1 cells were androgen-starved (in phenol red-free medium+10% CS-FBS) for 3 days to ensure the full-length AR expressed in 22Rv1 are not activated. The 22Rv1 cells were subsequently co-transfected with PSA-luc and pRL-TK plasmids. […] Cells in phenol red-free medium+10% CS-FBS were exposed to DMSO or compounds for 24 h and harvested for Western blot analysis.

[1] = MTT assay (cytotoxicity), 22Rv1 cells; format: cell-based; settings: human, 22Rv1 cells
Summary of the method: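 Cells grown in RPMI 1640 with 10% FBS were seeded at 6-7×10^3 cells/well and left overnight. They were then exposed to compound or DMSO vehicle for 72 h in fresh medium. Viability was measured by MTT, in triplicate, with each experiment repeated at least twice.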

full-length IRF3 = target: T1, full-length IRF3 (Homo sapiens, UniProt Q14653); assay: Full-length IRF3 ISRE-luc reporter assay; format: cell-based; settings: PC3 cells, 24 h
T1 construct: co-transfected with full-length IRF3 or IRF3DBD-AR(1-547) expressing plasmids; expressed in transfected cells
T1 sequence (Q14653 1-427): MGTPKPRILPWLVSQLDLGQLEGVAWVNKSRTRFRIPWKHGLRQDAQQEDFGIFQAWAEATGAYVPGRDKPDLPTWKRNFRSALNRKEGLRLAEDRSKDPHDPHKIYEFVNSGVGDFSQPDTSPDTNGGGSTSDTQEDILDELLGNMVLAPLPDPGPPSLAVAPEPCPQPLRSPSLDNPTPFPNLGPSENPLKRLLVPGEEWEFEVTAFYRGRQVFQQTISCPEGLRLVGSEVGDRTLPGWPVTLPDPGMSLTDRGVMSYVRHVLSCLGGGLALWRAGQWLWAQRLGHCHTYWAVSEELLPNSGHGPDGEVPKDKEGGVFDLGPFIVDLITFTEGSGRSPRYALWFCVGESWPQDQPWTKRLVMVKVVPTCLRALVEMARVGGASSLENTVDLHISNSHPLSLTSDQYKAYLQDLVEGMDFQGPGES
From the text: For all of the others, cells were co-transfected with full-length IRF3 or IRF3DBD-AR(1-547) expressing plasmids and with the ISRE-luc reporter and pRL-TK plasmids. […] As IRF3DBD-AR(1-547) contains the DBD of IRF3, ISRE-luc reporter instead of the PSA-luc reporter was used in our assays.
HEK293 cells were co-transfected with IRF3DBD(1-133) or IRF3DBD-AR(1-547) or IRF3DBD-AR(181-547) or full-length IRF3 expressing plasmids and with the ISRE-luc reporter and the Renilla luciferase pRL-TK plasmids.
Here, IRF3-AR(1-547) is the fusion of IRF3 DBD with the AR NTD (1-547). […] The plasmids expressing IRF3-AR(1-547) (A) or wild-type IRF3 (B) or IRF3 DBD (for NT) as well as ISRE-luc and pRL-TK were transiently transfected into PC3 cells. […] Bic, bicalutamide; EPI, EPI-001.

[2] = target: T2, H874Y mutant of full-length AR in 22Rv1 cells (Homo sapiens, UniProt P10275, H875Y); assay: PSA-luc reporter assay in 22Rv1 cells, DHT-induced (endogenous H874Y full-length AR); format: cell-based
T2 sequence (P10275 1-920 H875Y): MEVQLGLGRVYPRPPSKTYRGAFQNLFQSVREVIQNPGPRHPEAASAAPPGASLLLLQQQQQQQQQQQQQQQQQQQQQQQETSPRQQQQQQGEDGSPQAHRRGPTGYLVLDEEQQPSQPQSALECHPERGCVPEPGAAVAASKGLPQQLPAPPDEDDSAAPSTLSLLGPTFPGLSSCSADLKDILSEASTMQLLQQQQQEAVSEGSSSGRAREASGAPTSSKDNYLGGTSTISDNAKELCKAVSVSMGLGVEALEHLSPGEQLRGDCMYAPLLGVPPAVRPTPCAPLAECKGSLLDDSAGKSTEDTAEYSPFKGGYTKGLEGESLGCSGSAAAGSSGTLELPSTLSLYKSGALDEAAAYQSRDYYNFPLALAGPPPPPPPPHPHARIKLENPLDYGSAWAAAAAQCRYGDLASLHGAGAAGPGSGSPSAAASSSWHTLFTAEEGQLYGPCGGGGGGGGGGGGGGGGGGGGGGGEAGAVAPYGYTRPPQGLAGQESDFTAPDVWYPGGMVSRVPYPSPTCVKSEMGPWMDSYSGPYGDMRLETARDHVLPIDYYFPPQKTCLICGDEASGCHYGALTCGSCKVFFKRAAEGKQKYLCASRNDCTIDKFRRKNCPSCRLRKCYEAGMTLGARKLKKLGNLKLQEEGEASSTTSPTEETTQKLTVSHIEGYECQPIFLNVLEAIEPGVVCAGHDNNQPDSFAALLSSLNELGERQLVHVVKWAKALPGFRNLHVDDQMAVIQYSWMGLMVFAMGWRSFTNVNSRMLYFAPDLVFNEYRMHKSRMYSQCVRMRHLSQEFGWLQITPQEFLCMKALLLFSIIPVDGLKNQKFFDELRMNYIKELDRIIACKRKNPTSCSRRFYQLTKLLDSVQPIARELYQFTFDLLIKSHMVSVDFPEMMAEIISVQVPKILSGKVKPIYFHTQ

VP16-AR(507-919) = VP16-AR(507-919) (NTD-deleted) PSA-luc reporter assay; settings: 10 nM DHT, 24 h; PC3 or HEK293 cells

| activity against wild-type IRF3 (ISRE-luc) (full-length IRF3) | inhibition of DHT-induced AR activation in 22Rv1 cells (PSA-luc) ([2]; 10 nM DHT, 24 h) | SMILES | apoptosis in LNCaP cells (LNCaP cells) | apoptosis in 22Rv1 cells (22Rv1 cells) | inhibition of DHT-induced activation of VP16-AR(507-919) (PSA-luc) (VP16-AR(507-919)) | further results |
| --- | --- | --- | --- | --- | --- | --- |
|  |  | O=C(Nc1cccc(C(F)(F)F)c1)Nc1ccc([N+](=O)[O-])c(C(F)(F)F)c1 [Compound 442] | induced apoptosis | induced apoptosis |  |  |
|  |  | N#Cc1ccc(NC(=O)Nc2cccc(C(F)(F)F)c2)cc1C(F)(F)F [Compound 467] | induced apoptosis | induced apoptosis |  |  |
|  |  | O=C(Nc1ccc(Br)nc1)Nc1cc(C(F)(F)F)cc(C(F)(F)F)c1 [Compound 566] |  |  |  | IC50 at 72 h ([1]; 72 h, Table 4.1): 1.1 µM |
| inactive | good activity | O=C(N/C=C/c1cccc(C(F)(F)F)c1)Nc1ccncn1 [Compound 562] |  |  | inactive |  |
| inactive | suppressed; also recorded: good activity | O=C(Nc1cccc(C(F)(F)F)c1)Nc1ccc(NC(=O)c2ccccc2F)c(C(F)(F)F)c1 [Compound 746] |  |  | inactive | IC50 at 72 h ([1]; 72 h treatment, Table 6.1): 2.2 µM; inhibition of DHT-induced AR activation in 22Rv1 cells (PSA-luc) ([2]; 1 μM): showed inhibitory activity |
